Measured values as given in patent US5637690A, “Sulfate of n-acetylneuraminic acid homopolymer and processes for making and using the same” (Marukin Shoyu Co., Ltd., priority 1993, dated 1997).

Columns and labels:
[1] = system: MT-4 cell; assay: Cytotoxicity on MT-4 cells (Pharmacological Tests 1, 2 and 3); type: cell-based; design: key to Toxicity: --: no cytotoxicity or no anti-HIV activity; key to Cytotoxicity: --: no toxicity; details: for Cytotoxicity: Table 2; for Toxicity: Table 4
Method: (§1) A medium in which MT-4 cell [Miyoshi I. et al., Gann Monogr., 28, 219-228 (1982)] was included in a proportion of 2×10^5 cell/ml medium (RPMI-1640+10%FCS) was prepared. To each of 500 μl portion of the medium were added sulfated colominic acid obtained from examples 1 and 2 at a concentration shown in table 1. After two hours addition of the esters, HIV was infected to cells in each well in the proportion of 5×10^3 PFU/well. After 4 days from HIV infection, smear of MT-4 cell was prepared to detect HIV antigen positive cells by immunofluorescence (Harada S. et al., Science, 229, 563-566 (1985); Takeuchi Y., et al., Jpn. J. Cancer Res. (Gann), 78, 11-15 (1987)).
(§2) In tables 1 and 3, a sample having a concentration of sulfated colominic acid of zero was regarded as control. In table 2, "--" indicates no toxicity.
A cytotoxicity of sulfated colominic acid was assayed in the same manner as Pharmacological Test 1. Specifically, after MT-4 cell prepared at a concentration of 1×10^5 cell/ml was cultured for 4 days in the presence of a variety of concentrations of sulfated colominic acid, the number of cells was counted. Cytotoxicity was evaluated by calculating a cell survival ratio in each final concentration of sulfated colominic acid taking as 100% the cell survival ratio of control, in which final concentration of sulfated colominic acid is zero.
(§3) In order to determine the minimum number of monomer unit of N-acetylneuraminic acid homopolymer, sulfate esters of formula (I) in which n is 1-6 were produced. A cytotoxicity and an anti-HIV activity of each sulfate ester were determined in the same manner as pharmacological tests 1 and 2.

[2] = system: HIV; assay: Anti-HIV activity: HIV antigen positive MT-4 cells by immunofluorescence (Pharmacological Tests 1 and 3); type: cell-based
Method: as §1
An anti-HIV activity of colominic acid which is a starting material in place of sulfated colominic acid was determined in the same manner as above.
as §2, §3

In the case of colominic acid [reference compound], the Cytotoxicity ([1]; final concentration 1 μg/ml) is reported as “--”, the Cytotoxicity ([1]; final concentration 3 μg/ml) is reported as “--” and the Cytotoxicity ([1]; final concentration 10 μg/ml) is reported as “--”. For the same substance, the Cytotoxicity ([1]; final concentration 30 μg/ml) was “--”, the Cytotoxicity ([1]; final concentration 100 μg/ml) was “--” and the “anti-HIV activity (in words)” value ([2]; Table 2, 1-100 μg/ml) was “does not have an anti-HIV activity”. For the same substance, the “Cell infection ratio” value ([2]; Table 2, final concentration 1 μg/ml) was > 95%, the “Cell infection ratio” value ([2]; Table 2, final concentration 3 μg/ml) was > 95% and the “Cell infection ratio” value ([2]; Table 2, final concentration 10 μg/ml) was > 95%. For the same substance, the “Cell infection ratio” value ([2]; Table 2, final concentration 30 μg/ml) was > 95% and the “Cell infection ratio” value ([2]; Table 2, final concentration 100 μg/ml) was > 95%.

For “sulfate ester of N-acetylneuraminic acid hexamer [DP-6-S]”, the Toxicity ([1]; final concentration 0.1 μg/ml) was “--”, the Toxicity ([1]; final concentration 0.3 μg/ml) was “--” and the Toxicity ([1]; final concentration 1 μg/ml) was “--”. The Toxicity ([1]; final concentration 3 μg/ml) was “--”, the Toxicity ([1]; final concentration 10 μg/ml) was “--” and the Toxicity ([1]; final concentration 30 μg/ml) was “--”. For the same substance, the Toxicity ([1]; final concentration 100 μg/ml) was “--”, the IC50 ([2]; Table 4, anti-HIV, MT-4 cells) was 20 mg/L and the Cell infection ratio ([2]; Table 4, final concentration 0.1 μg/ml) was > 95%. For the same substance, the Cell infection ratio ([2]; Table 4, final concentration 0.3 μg/ml) was > 95%, the Cell infection ratio ([2]; Table 4, final concentration 1 μg/ml) was > 95% and the Cell infection ratio ([2]; Table 4, final concentration 3 μg/ml) was > 95%. For the same substance, the Cell infection ratio ([2]; Table 4, final concentration 10 μg/ml) was 80%, the Cell infection ratio ([2]; Table 4, final concentration 30 μg/ml) was 30% and the Cell infection ratio ([2]; Table 4, final concentration 100 μg/ml) was < 5%.
